“Also recorded” adds a separate entry of the source.
Tests used:
[1] = system: primary rat cortical neurons; test: Oxygen glucose deprivation (OGD, 90 min) of primary neuronal cultures, cell viability by MTT reduction; type: cell-based; settings: for level of protection from OGD, compared with Compound 4: 90 min OGD; for protection of cortical rat neurons from the impact of OGD (cell viability): pre-incubation 30 min before 90 min OGD, MTT
Procedure: FIGS. 1 and 2 are histograms showing the cell viability of primary rat cortical neurons that had been exposed to ninety (90) minutes oxygen glucose deprivation. Pre-incubation of an arginine-rich polypeptide [RRRRRRRRR (SEQ ID: 4)]
Dissociated primary neuronal cell cultures were prepared from rat brains at 37° C. in a humidified atmosphere containing 5% CO2 and […] and grown to confluence in glucose-containing media. Indicated compounds were applied thirty (30) minutes before cultures were placed in an environment of oxygen glucose deprivation (OGD). OGD was achieved using glucose-free media and a humidified atmosphere containing 5% CO2 and 95% N2. OGD was continued for ninety (90) minutes and terminated by return to baseline conditions with glucose and O2 restored. Reduction of 3-(4,5-dimethyl-2-thiazolyl)-2,5-diphenyltetrazolium bromide (MTT) by cellular dehydrogenases measured mitochondrial activity and cell health. […] This model is a dissociated cell preparation, therefore vasculature is absent, therefore the activity of Compound 4 (SEQ ID NO: 4), an inventive Arginine rich polypeptide, is shown to be independent of changes to vascular tone and indicates protection from a novel mechanism of action.

[2] = system: SAPK/JNK; test: Western blot of phospho-SAPK/JNK (cell death signaling) in OGD-treated primary neuronal cultures; type: cell-based, rat; settings: after OGD
Source text: JNK signaling is widely considered to be an indicator of cell death signaling.
Dissociated primary neuronal cell cultures treated in the same manner as indicated in Example 2 were collected and their cells lysed. Cellular proteins were precipitated and denatured for immunohistochemical analysis by Western Blot. Phospho-SAPK/JNK ([…]) antibody detects endogenous levels of p46 and p54 SAPK/JNK dually phosphorylated at threonine 183 and tyrosine 185. Levels of The stress-activated protein kinase/Jun-amino-terminal kinase SAPK/JNK are widely considered to be molecular sequelae of the activation of cell death pathways that lead to apoptosis.

C[C@@H]([C@@H](O)c1ccc(O)cc1)N1CCC(O)(c2ccccc2)CC1 [CP 101 606]
level of protection from OGD, compared with Compound 4 ([1]; 10 μM): comparable
level of JNK cell death signaling, compared with Compound 4 2 μM ([2]; 10 μM): comparable

C[C@H](NC(c1cccc2[nH]c(=O)c(=O)[nH]c12)P(=O)(O)O)c1ccc(Br)cc1 (some centres unmarked) [NVPAAM077]
level of protection from OGD, compared with Compound 4 ([1]; 100 nM): comparable
level of JNK cell death signaling, compared with Compound 4 2 μM ([2]; 100 nM): comparable

CCRRRRRRR [Control peptide; cysteine-arginine peptide of the kind claimed in WO2013158739]
protection of cortical rat neurons from the impact of OGD (cell viability) ([1]; 2 μM): no significant neuroprotection; also recorded: no significant neuroprotective effect
protection of cortical rat neurons from the impact of OGD (cell viability) ([1]; 2 μM, listed as ccrrrrrrr): no significant neuroprotection; also recorded: no significant neuroprotective effect
protection of cortical rat neurons from the impact of OGD (cell viability) ([1]; 10 μM): no significant neuroprotection; also recorded: no significant neuroprotective effect
protection of cortical rat neurons from the impact of OGD (cell viability) ([1]; 10 μM, listed as ccrrrrrrr): no significant neuroprotection; also recorded: no significant neuroprotective effect

RRRRRRRRR (cell penetrating peptide) [Compound 4]
protection of cortical rat neurons from the impact of OGD (cell viability) ([1]; 2 μM): significant protection
protection of cortical rat neurons from the impact of OGD (cell viability) ([1]; 10 μM): significant protection
p54 and p48 JNK cell death signaling (Western blot) ([2]; 2 μM, p<0.05, n=3): significantly suppressed

— patent publication US20170114093A1, “Methods of Treatment and Prevention of Disease by Arginine-rich Compositions that Induce Cytoprotection and Neuroprotection” (priority 2015, published 2017)
